Where two headings read alike, the source gives them in different places.
Columns and labels:
KB = test: in vitro screen against human tumor cell line KB (nasopharyngeal), GI50; type: cell-based; conditions: for GI50: read-out: GI50 KB
A549 = test: in vitro screen against human tumor cell line A549 (lung), GI50; type: cell-based
DU145 = test: in vitro screen against human tumor cell line DU-145 (prostate), GI50; type: cell-based
KBvin = test: in vitro screen against KBvin cell line, GI50; type: cell-based; conditions: Homo sapiens
[1] = test system: panel of cancer cell lines including A549 (lung), DU-145 (prostate), KB (nasopharyngeal), and HCT-8 (colon); test: cells; conditions: Homo sapiens
HCT-8 = test: in vitro screen against human tumor cell line HCT-8 (colon), GI50; type: cell-based
[2] = test system: panel of cancer cell lines including A549 (lung), DU-145 (prostate), KB (nasopharyngeal), and HCT-8 (colon)
SKBR = test: in vitro screen against cancer cell line SKBR (breast), GI50; type: cell-based; conditions: Example 3, Table 1
rats = conditions: rat, in vivo; cited from earlier work
[3] = Homo sapiens, KB, Example 2, Table 3, 13-aza-cryptopleurines
[4] = Homo sapiens, A549, Example 2, Table 3, 13-aza-cryptopleurines, read-out: GI50 A549
[5] = Homo sapiens, DU-145, Example 2, Table 3, 13-aza-cryptopleurines, read-out: GI50 DU145
[6] = Table 3, cells marked (KBvin) in the HCT-8 column
[7] = Example 2, Table 4, 12-aza-cryptopleurines
[8] = Example 2, Table 4, 12-aza-cryptopleurines, read-out: GI50 A549
[9] = Homo sapiens, KB, Example 3, Table 1
[10] = Homo sapiens, A549, Example 3, Table 1, read-out: GI50 A549
[11] = Homo sapiens, DU-145, Example 3, Table 1, read-out: GI50 DU145
[12] = Homo sapiens, HCT-8, Example 2, Table 4, 12-aza-cryptopleurines, read-out: GI50 HCT-8
[13] = Homo sapiens, KB, Example 2, Table 4, 12-aza-cryptopleurines
[14] = Homo sapiens, A549, Example 2, Table 4, 12-aza-cryptopleurines, read-out: GI50 A549
[15] = Homo sapiens, DU-145, Example 2, Table 4, 12-aza-cryptopleurines, read-out: GI50 DU145

Work on COc1ccc2c3c(c4cc(OC)c(OC)cc4c2c1)CC1CN(Cc2ccccc2)CN1C3 (stereo in doubt) [Compound 3j, (R)-12-aza-12N-benzyl-antofine] yielded a GI50 (KB; Homo sapiens, KB, Example 2, Table 2, 12-aza-antofines) of 3410 nM, a GI50 (A549; Homo sapiens, A549, Example 2, Table 2, 12-aza-antofines, read-out: GI50 A549) of 2680 nM and a GI50 (DU145; Homo sapiens, DU-145, Example 2, Table 2, 12-aza-antofines, read-out: GI50 DU145) of 4620 nM. The melting point was 95 to 97 °C and the GI50 (KBvin; Table 2, cells marked (KBvin) in the HCT-8 column) was 1870 nM.
Compound COc1ccc2c3c(c4cc(OC)c(OC)cc4c2c1)CC1CN(CC(C)C)CCN1C3 (stereo in doubt) [Compound 8m, (R)-13-aza-13N-isobutyl-cryptopleurine] has a GI50 (KB; [3]) of 11200 nM, a GI50 (A549; [4]) of 12900 nM and a GI50 (DU145; [5]) of 12200 nM. It also gave a melting point of 175 to 177 °C and a GI50 (KBvin; [6]) of 9960 nM.
Compound COc1ccc2c3c(c4cc(OC)c(OC)cc4c2c1)CC1CN(Cc2ccccc2)CCN1C3 (stereo in doubt) [Compound 8n, (R)-13-aza-13N-benzyl-cryptopleurine] has a GI50 (KB; [3]) of 12100 nM, a GI50 (A549; [4]) of 16400 nM and a GI50 (DU145; [5]) of 11900 nM. For the same compound, the melting point was 86 to 88 °C and the GI50 (KBvin; [6]) was 7640 nM.
Compound COc1ccc2c3c(c4cc(OC)c(OC)cc4c2c1)CC1CCN(CC(C)C)CN1C3 (stereo in doubt) [Compound 11g, (R)-12-aza-12N-isobutyl-cryptopleurine] has a GI50 (KB; [7]) of 1450 nM, a GI50 (A549; [8]) of 5110 nM and a GI50 (DU145; Example 2, Table 4, 12-aza-cryptopleurines, read-out: GI50 DU145) of 1660 nM. It also gave a melting point of 175 to 177 °C and a GI50 (KBvin; Table 4, cell marked (KBvin) in the HCT-8 column) of 7320 nM.
In the case of COc1ccc2c3c(c4cc(OC)c(OC)cc4c2c1)C[C@H]1CN(C)CN1C3 [Compound 3h, (S)-12-aza-12N-methyl-antofine], the GI50 ([1]; read-out: range of activities (GI50) over the cell line panel) is reported as 660 to 2030 nM, the GI50 (HCT-8; Example 2, Table 2, 12-aza-antofines, read-out: GI50 HCT-8) is reported as 1000 nM and the GI50 (KB; Example 2, Table 2, 12-aza-antofines) is reported as 1720 nM. For the same compound, the GI50 (A549; Example 2, Table 2, 12-aza-antofines, read-out: GI50 A549) was 660 nM, the GI50 (DU145; Example 2, Table 2, 12-aza-antofines, read-out: GI50 DU145) was 2030 nM and the melting point was 182 to 184 °C.
With COc1ccc2c3c(c4cc(OC)c(OC)cc4c2c1)C[C@H]1CC(=O)CN1C3 [Compound 8, (S)-12-oxo-antofine] the “range of cytotoxicity / anticancer activity in words” value [2] was “middle nM to low μM range”, the GI50 (KB; [9]) was 500 nM and the GI50 (A549; [10]) was 290 nM. It also gave a GI50 (DU145; [11]) of 710 nM and a GI50 (KBvin; KBVIN, Example 3, Table 1) of 430 nM.
In the case of COc1ccc2c3c(c4cc(OC)c(OC)cc4c2c1)C[C@H]1C[C@@H](O)CN1C3 [Compound 9a, (12R,13aS)-12-hydroxyl-antofine], the “range of cytotoxicity / anticancer activity in words” value [2] is reported as “middle nM to low μM range”, the “activity of 12R isomer compared with 12S isomer (9b)” value ([2]; Example 3) is reported as 3 fold and the GI50 (KB; [9]) is reported as 780 nM. It also gave a GI50 (A549; [10]) of 610 nM, a GI50 (DU145; [11]) of 700 nM and a GI50 (KBvin; KBVIN, Example 3, Table 1) of 640 nM.
With COc1ccc2c3c(c4cc(OC)c(OC)cc4c2c1)C[C@H]1C[C@H](O)CN1C3 [Compound 9b, (12S,13aS)-12-hydroxyl-antofine] the “range of cytotoxicity / anticancer activity in words” value [2] was “middle nM to low μM range”, the GI50 (KB; [9]) was 1810 nM and the GI50 (A549; [10]) was 2270 nM. For the same compound, the GI50 (DU145; [11]) was 1800 nM and the GI50 (KBvin; KBVIN, Example 3, Table 1) was 2210 nM.
Work on COc1ccc2c3c(c4cc(OC)c(OC)cc4c2c1)C[C@H]1CCN(CCO)CN1C3 [Compound 11a, (S)-12-aza-12N-hydroxylethyl-cryptopleurine] yielded a GI50 (HCT-8; [12]) of 10600 nM, a GI50 (KB; [13]) of 1590 nM and a GI50 (A549; [14]) of 5680 nM. It also gave a GI50 (DU145; [15]) of 1990 nM and a melting point of 138 to 140 °C.
COc1ccc2c3c(c4cc(OC)c(OC)cc4c2c1)C[C@H]1CCN(CC(C)C)CN1C3 [Compound 11c, (S)-12-aza-12N-isobutyl-cryptopleurine] showed a GI50 (HCT-8; [12]) of 1360 nM, a GI50 (KB; [7]) of 5060 nM and a GI50 (A549; [8]) of 1520 nM. The GI50 (DU145; [15]) was 2300 nM and the melting point was 177 to 179 °C.
With COc1ccc2c3c(c4cc(OC)c(OC)cc4c2c1)C[C@H]1CCN(Cc2ccccc2)CN1C3 [Compound 11d, (S)-12-aza-12N-benzyl-cryptopleurine] the GI50 (HCT-8; [12]) was 21300 nM, the GI50 (KB; [13]) was over 40000 nM and the GI50 (A549; [14]) was 29900 nM. The GI50 (DU145; [15]) was over 40000 nM and the melting point was 211 to 213 °C.
COc1ccc2c3c(c4cc(OC)c(OC)cc4c2c1)C[C@H]1CCOCN1C3 [Compound 13, (S)-12-oxa-cryptopleurine] gave a GI50 ([1]; read-out: average GI50) of 1000 to 2000 nM, a GI50 (HCT-8; Homo sapiens, HCT-8, Example 2, Table 5, read-out: GI50 HCT-8) of 1450 nM and a GI50 (KB; Homo sapiens, KB, Example 2, Table 5) of 1660 nM. For the same compound, the GI50 (A549; Homo sapiens, A549, Example 2, Table 5, read-out: GI50 A549) was 1790 nM and the GI50 (DU145; Homo sapiens, DU-145, Example 2, Table 5, read-out: GI50 DU145) was 1820 nM.
With COc1ccc2c3c(c4cc(OC)c(OC)cc4c2c1)C[C@H]1C[C@@H](O)CCN1C3 [Compound 13a, (13S,14aS)-13-hydroxyl-eryptopleurine] the “range of cytotoxicity / anticancer activity in words” value [2] was “low nM range”, the GI50 (KB; [9]) was 43 nM and the GI50 (A549; [10]) was 72 nM. It also gave a GI50 (DU145; [11]) of 59 nM, a GI50 (SKBR) of 295 nM and a GI50 (KBvin; KBVIN, Example 3, Table 1) of 78 nM.
With COc1ccc2c3c(c4cc(OC)c(OC)cc4c2c1)C[C@H]1C[C@H](O)CCN1C3 [Compound 13b, (13R,14aS)-13-hydroxyl-cryptopleurine] the “range of cytotoxicity / anticancer activity in words” value [2] was “low nM range”, the GI50 (KB; [9]) was 23 nM and the GI50 (A549; [10]) was 22 nM. For the same compound, the GI50 (DU145; [11]) was 11 nM, the GI50 (SKBR) was 72 nM and the GI50 (KBvin; KBVIN, Example 3, Table 1) was 25 nM.
Compound COc1ccc2c3c(c4cc(OC)c(OC)cc4c2c1)C[C@H]1CCC(=O)CN1C3 [Compound 18, (R)-12-oxo-cryptopleurine] has a GI50 (KB; [9]) of 734 nM, a GI50 (A549; [10]) of 910 nM and a GI50 (DU145; [11]) of 1700 nM. It also gave a GI50 (SKBR) of 3340 nM and a GI50 (KBvin; KBVIN, Example 3, Table 1) of 1480 nM.
With COc1ccc2c3c(c4cc(OC)c(OC)cc4c2c1)C[C@H]1CC[C@@H](O)CN1C3 [Compound 19a, (12R,14aR)-12-hydroxyl-cryptopleurine] the “range of cytotoxicity / anticancer activity in words” value [2] was “lower nM range”, the GI50 (KB; [9]) was 33 nM and the GI50 (A549; [10]) was 82 nM. It also gave a GI50 (DU145; [11]) of 66 nM, a GI50 (SKBR) of 348 nM and a GI50 (KBvin; KBVIN, Example 3, Table 1) of 45 nM.
For COc1ccc2c3c(c4cc(OC)c(OC)cc4c2c1)C[C@H]1CC[C@H](O)CN1C3 [Compound 19b, (12S,14aR)-12-hydroxyl-cryptopleurine], the “range of cytotoxicity / anticancer activity in words” value [2] was “low μM range”, the GI50 (KB; [9]) was 2250 nM and the GI50 (A549; [10]) was 2510 nM. The GI50 (DU145; [11]) was 2250 nM, the GI50 (SKBR) was 6440 nM and the GI50 (KBvin; KBVIN, Example 3, Table 1) was 3070 nM.
With COc1ccc2c3c(c4cc(OC)c(OC)cc4c2c1)C[C@H]1CCCCN1C3 [R-cryptopleurine, reference compound] the GI50 (HCT-8; read-out: GI50 HCT-8) was 1.09 nM, the GI50 (HCT-8; read-out: HCT-8 GI50) was 1.09 nM and the “KB GI50” value (KB) was 1.51 nM. For the same compound, the GI50 (KB) was 1.51 nM, the “toxicity in animal tests” value (rats) was “quite toxic” and the GI50 (A549; read-out: A549 GI50) was 1.38 nM. It also gave a GI50 (A549; read-out: GI50 A549) of 1.38 nM, a GI50 (DU145; read-out: DU145 GI50) of 1.59 nM and a GI50 (DU145; read-out: GI50 DU145) of 1.59 nM.
For COc1cc2c3c(c4cc(OC)c(OC)cc4c2cc1OC)CN1CCC[C@@H]1C3 [tylophorine], the generally non-toxic dose (rats) is given as “up to 500 mg/kg”.
